Test results published in PubChem BioAssay (NCI).
“And” between values parts separate entries of the source, which are not always exact repeats. Identical values can stand only once.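 Protocol summary: plate cells (96-well), add compound at 5 concentrations, incubate 48 h, interpolate endpoints linearly. GI50 = concentration required for 50% inhibition of growth. TGI marks complete inhibition of growth.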

Assays:
Assay in all cases: NCI tumour cell line growth inhibition, 48 h
[1] = test system: SN12C renal
[2] = test system: HOP-62 NSCLC
[3] = test system: A549 NSCLC
[4] = test system: MALME-3M melanoma
[5] = test system: M14 melanoma
[6] = test system: T-47D breast
[7] = test system: KM12 colon
[8] = test system: UACC-62 melanoma
[9] = test system: SK-MEL-2 melanoma
[10] = test system: HCC-2998 colon
[11] = test system: NCI-H460 lung
[12] = test system: IGROV1 ovarian
[13] = test system: HOP-92 NSCLC
[14] = test system: RPMI-8226 leukemia
[15] = test system: SF-539 CNS
[16] = test system: NCI/ADR-RES ovarian
[17] = test system: HCT-15 colon
[18] = test system: PC-3 prostate
[19] = test system: MDA-N
[20] = test system: HCT-116 colon
[21] = test system: COLO 205 colon
[22] = test system: NCI-H522 lung
[23] = test system: NCI-H226 lung
[24] = test system: MCF7 breast
[25] = test system: SK-MEL-5 melanoma
[26] = test system: OVCAR-3 ovarian
[27] = test system: BT-549 breast
[28] = test system: MDA-MB-435
[29] = test system: SW-620 colon
[30] = test system: ACHN renal
[31] = test system: EKVX NSCLC
[32] = test system: K-562 leukemia
[33] = test system: HL-60(TB) leukemia
[34] = test system: 786-0 renal
[35] = test system: OVCAR-5 ovarian
[36] = test system: MDA-MB-231 breast
[37] = test system: SF-295 CNS
[38] = test system: DU-145 prostate
[39] = test system: HS 578T breast
[40] = test system: UO-31 renal
[41] = test system: SR leukemia
[42] = test system: SF-268 CNS
[43] = test system: HT29 colon
[44] = test system: SK-OV-3 ovarian
[45] = test system: UACC-257 melanoma
[46] = test system: SNB-19 CNS
[47] = test system: MOLT-4 leukemia
[48] = test system: TK-10 renal
[49] = test system: U251 CNS
[50] = test system: A498 renal
[51] = test system: NCI-H23 lung
[52] = test system: RXF 393 renal
[53] = test system: SK-MEL-28 melanoma
[54] = test system: SNB-75 CNS
[55] = test system: CAKI-1 renal
[56] = test system: LOX IMVI melanoma
[57] = test system: OVCAR-4 ovarian
[58] = test system: OVCAR-8 ovarian

Which GI50 [1] does the source give for `CCc1c2c(nc3cc4c(c(N)c13)OCO4)-c1cc3c(c(=O)n1C2)COC(=O)[C@]3(O)CC` here?
Its GI50 is < 1 nM.

What about the TGI [1] of the same molecule?
Its TGI is > 100000 nM.

And the GI50 [2]?
Its GI50 is < 1 nM.

And the GI50 [3]?
The GI50 was < 1 nM.

What about the TGI [3] of the same molecule?
The TGI was 1010 nM and 1470 nM.

What about the GI50 [4] of the same molecule?
Its GI50 is 27.6 nM.

What about the TGI [4] of the same molecule?
Its TGI is 4250 nM.

What about the GI50 [5] of the same molecule?
The GI50 was < 1 nM.

And the TGI [5]?
Its TGI is 1030 nM.

What about the GI50 [6] of the same molecule?
Its GI50 is < 1 nM.

And the GI50 [7]?
The GI50 was 133 nM and 57.8 nM.

And the TGI [7]?
The TGI was 1660 nM.

And the GI50 [8]?
Its GI50 is < 1 nM.

What about the TGI [8] of the same molecule?
The TGI was 405 nM and 236 nM.

And the TGI [9]?
The TGI was 42.4 nM.

What about the GI50 [10] of the same molecule?
Its GI50 is 31.7 nM and 43.1 nM.

What about the TGI [10] of the same molecule?
Its TGI is 6380 nM and 676 nM.

What about the GI50 [11] of the same molecule?
The GI50 was < 1 nM.

And the TGI [11]?
Its TGI is 470 nM and 157 nM.

And the GI50 [12]?
The GI50 was 161 nM and 128 nM.

And the GI50 [13]?
Its GI50 is 6.02 nM.

What about the TGI [13] of the same molecule?
The TGI was 562 nM and 992 nM.

What about the TGI [14] of the same molecule?
Its TGI is 317 nM and 2770 nM.

What about the GI50 [15] of the same molecule?
The GI50 was < 1 nM.

What about the TGI [15] of the same molecule?
Its TGI is 38 nM.

And the TGI [16]?
Its TGI is 56700 nM.

And the GI50 [17]?
Its GI50 is 277 nM and 178 nM.

And the TGI [17]?
The TGI was > 100000 nM.

And the GI50 [18]?
Its GI50 is 228 nM and 28.8 nM.

And the TGI [18]?
Its TGI is > 100000 nM.

And the TGI [19]?
The TGI was > 100000 nM.

And the GI50 [20]?
The GI50 was 174 nM.

What about the TGI [20] of the same molecule?
Its TGI is 24600 nM.

And the GI50 [21]?
Its GI50 is 696 nM.

And the TGI [22]?
Its TGI is 1360 nM and 663 nM.

And the GI50 [23]?
The GI50 was < 1 nM.

And the TGI [23]?
Its TGI is 202 nM.

What about the GI50 [24] of the same molecule?
Its GI50 is < 1 nM.

And the TGI [24]?
Its TGI is 29.8 nM.

What about the GI50 [25] of the same molecule?
The GI50 was < 1 nM.

And the TGI [25]?
Its TGI is 22.2 nM and 101 nM.

And the GI50 [26]?
The GI50 was 278 nM and 264 nM.

And the TGI [26]?
The TGI was > 100000 nM.

And the GI50 [27]?
Its GI50 is < 1 nM.

And the TGI [27]?
Its TGI is 4390 nM.

And the GI50 [28]?
Its GI50 is 24.1 nM and 79.6 nM.

And the TGI [28]?
The TGI was 2010 nM and 1960 nM.

What about the TGI [29] of the same molecule?
Its TGI is > 100000 nM.

What about the GI50 [30] of the same molecule?
Its GI50 is < 1 nM.

And the TGI [30]?
The TGI was 412 nM.

What about the GI50 [31] of the same molecule?
The GI50 was 1930 nM and 962 nM.

And the TGI [31]?
The TGI was 48700 nM.

What about the GI50 [32] of the same molecule?
Its GI50 is 1.35 nM.

And the TGI [32]?
Its TGI is > 100000 nM.

What about the GI50 [33] of the same molecule?
Its GI50 is < 1 nM.

What about the TGI [34] of the same molecule?
Its TGI is > 100000 nM.

And the GI50 [35]?
Its GI50 is 702 nM and 94.8 nM.

And the TGI [35]?
Its TGI is 409 nM.

What about the GI50 [36] of the same molecule?
Its GI50 is 24.6 nM and 48.8 nM.

What about the TGI [36] of the same molecule?
The TGI was > 100000 nM.

And the GI50 [37]?
The GI50 was < 1 nM.

And the GI50 [38]?
The GI50 was < 1 nM.

What about the TGI [38] of the same molecule?
The TGI was > 100000 nM.

And the TGI [39]?
Its TGI is > 100000 nM.

And the GI50 [40]?
The GI50 was 1.28 nM.

What about the TGI [40] of the same molecule?
Its TGI is 153 nM.

And the TGI [41]?
The TGI was > 100000 nM.

What about the TGI [42] of the same molecule?
Its TGI is 15200 nM.

What about the GI50 [43] of the same molecule?
The GI50 was 14.5 nM.

And the TGI [43]?
The TGI was > 100000 nM.

What about the GI50 [44] of the same molecule?
Its GI50 is < 1 nM.

And the GI50 [45]?
The GI50 was 199 nM and 58.3 nM.

What about the TGI [45] of the same molecule?
Its TGI is 2580 nM and 2470 nM.

And the GI50 [46]?
Its GI50 is < 1 nM.

And the TGI [46]?
Its TGI is 183 nM.

What about the GI50 [47] of the same molecule?
Its GI50 is < 1 nM.

What about the GI50 [48] of the same molecule?
Its GI50 is 3030 nM and 483 nM.

What about the TGI [48] of the same molecule?
The TGI was 6250 nM.

And the GI50 [49]?
Its GI50 is < 1 nM.

What about the TGI [49] of the same molecule?
The TGI was 32.6 nM and 174 nM.

What about the GI50 [50] of the same molecule?
The GI50 was 7.58 nM and 33.4 nM.

What about the TGI [50] of the same molecule?
The TGI was 252 nM and 459 nM.

What about the GI50 [51] of the same molecule?
Its GI50 is < 1 nM.

And the GI50 [52]?
Its GI50 is 18.8 nM and 43 nM.

And the TGI [52]?
Its TGI is 440 nM and 382 nM.

What about the GI50 [53] of the same molecule?
Its GI50 is 473 nM and 249 nM.

And the TGI [53]?
Its TGI is 5440 nM and 32400 nM.

And the GI50 [54]?
Its GI50 is < 1 nM.

What about the GI50 [55] of the same molecule?
Its GI50 is < 1 nM.

And the TGI [55]?
The TGI was 7.41 nM.

What about the GI50 [56] of the same molecule?
The GI50 was < 1 nM.

And the TGI [56]?
Its TGI is 134 nM and 190 nM.

And the GI50 [57]?
The GI50 was 130 nM and 350 nM.

And the TGI [57]?
The TGI was > 100000 nM.

And the TGI [58]?
The TGI was 14700 nM.
